Results on 2 molecules are retold here after paper PMC10742472, “Synthesis and Characterisation of Platinum(II) Diaminocyclohexane Complexes with Pyridine Derivatives as Anticancer Agents” (International Journal of Molecular Sciences, 2023).

For one series, the system named is BE2-C (Neuroblastoma). Nature of the series: MTT cytotoxicity assay, BE2-C. The class given is cell-based. Conditions: 72 h exposure. For orientation: Formazan colour is commonly taken as a measure of viable cells.
Another series concerns MIA (Pancreas). Nature of the series: MTT cytotoxicity assay, MIA. The class given is cell-based. Conditions: 72 h exposure.
A further series concerns U87 (Glioblastoma). As to the kind of experiment: MTT cytotoxicity assay, U87. The class given is cell-based. Conditions: 72 h exposure.
A further series has as its system H460 (Lung). As to the kind of experiment: MTT cytotoxicity assay, H460. The series is classed as cell-based. The settings on record: 72 h exposure.
Another series has as its system HT29 (Colon). Nature of the series: MTT cytotoxicity assay, HT29. The series is classed as cell-based. Conditions: 72 h exposure.
The next series concerns Du145 (Prostate). As to the kind of experiment: MTT cytotoxicity assay, Du145. The class given is cell-based. The settings on record: 72 h exposure.
For another series, the system named is A431 (Skin). As to the kind of experiment: MTT cytotoxicity assay, A431. The class given is cell-based. Conditions: 72 h exposure.
The next series concerns MCF10A (Breast, Normal). Nature of the series: MTT cytotoxicity assay, MCF10A non-cancer breast cells. Conditions: 72 h exposure. The class given is cell-based.
The next series deals with SJ-G2 (Glioblastoma). As to the kind of experiment: MTT cytotoxicity assay, SJ-G2. The settings on record: 72 h exposure. The class given is cell-based.
A further series has as its system Calf-thymus DNA (ctDNA). Nature of the series: Fluorescent intercalator displacement (FID) ctDNA binding assay with ethidium bromide. More on the design: Ka (binding coefficient) / KF (binding constant for fluorescence) / Kq (bimolecular quenching constant) / KSV (Stern–Volmer quenching constant): unit not given here. Conditions: 75 µM ethidium bromide, 150 µM ctDNA, pH 7.0. The method, then: To achieve this, the fluorescent signal of a DNA intercalator, in this case, ethidium bromide (EtBr), is measured as increasing concentrations of PC are added. As the PC displaces the EtBr, the fluorescence of the mixture is diminished, and the DNA binding capacity of the complex can be calculated from the fluorescence measurement. Calf-thymus DNA (ctDNA) was used and saturated with EtBr. The change in fluorescence is monitored as the complex is titrated into this solution. Once the decrease in fluorescence plateaued, the titration was ended. […] The fluorescence was measured from 550-750 nm and excited at 480 nm. Importantly, the cuvette was inverted four times, and the solution was incubated for 3 min after the addition of […] to allow adequate time for the PCs to interact with the DNA before scanning. […] A plot of F0/F against [PC] using experimental values allowed the determination of Kq and KSV from the slope as per Equation (5). (5) […] where n is the number of ethidium ligands that are displaced per PC. It is important to note that this expression is a simplification of the true binding interaction, as it ignores the effect of EtBr on the binding equilibrium. […] A plot of Log10[(F0 - F)/F)] against Log10[PC] was used to determine KF and n from the intercept and slope, respectively.

The format of series [1] is physicochemical. The method, then:
Lipophilicity was calculated using RP-HPLC. A stock solution of each PC was injected at different isocratic ratios ranging from 70–90% solvent B (organic) at a flow rate of 1 mL·min^−1 [32, 33, 34]. The complexes have low solubility in water, often requiring DMSO to make concentrated solutions. Yet the LogK’ calculated using these experimental data indicated high lipophilicity, which is typical for 2+ charged complexes. […] When heat was applied, they would not precipitate out of the solution after cooling. This confirmed that a lack of persistence was the cause of the “observed” low solubility in H2O. […] Their increased lipophilicity may indicate they have the potential to be administered orally, a characteristic usually associated with Pt(IV) complexes. Other factors, such as stability and cellular absorption, would need to be considered before the potential of these Pt(II) anticancer agents could be evaluated.
Lipophilicity was evaluated using RP-HPLC, whereby LogKw is calculated by injecting a stock solution of the PC at different isocratic ratios ranging from 70–90% solvent B (organic) at a flow rate of 1 mL·min^−1. An Agilent Technologies 1260 Infinity machine equipped with a Phenomenex Onyx™ Monolithic C18 reverse phase column (100 × 4.6 mm, 130 Å) was used to determine purity. The mobile phase comprised 0.06% TFA in water (solvent A) and 0.06% TFA in 90:10 ACN:H2O mixture (solvent B). The PC peak was eluted outside the dead zero volume time to avoid inaccurate results. The dead zero volume time was determined using potassium iodide as an external dead volume marker, with further details in the Supplementary Materials. The subsequent peaks were recorded, and K was calculated using Equation (6). (6) K=tr−t0/t0 where K is the capacity factor, tr is the retention time of the analyte, and t0 is the dead time determined using a solution of KI in the same column. At least five different isocratic ratios were used to assess each PC, and each experiment was repeated three times. LogK’ was then calculated and plotted against the concentration of ACN in the mobile phase. […] (7) LogK^′=Sφ+LogKw where S is the slope, φ is the concentration of ACN in the mobile phase, and LogKw represents the capacity factor of the compound in 100% water (Figure S49).

A further series deals with MCF-7 (Breast). Nature of the series: MTT cytotoxicity assay, MCF-7. The class given is cell-based. The settings on record: 72 h exposure.

As to “[Pt(2-(2-pyridyl)benzimidazole)(1R,2R-(+)-diaminocyclohexane)]^2+ [Complex 6b]”, the GI50 was 30 ± 2.1 µM in the series with BE2-C (Neuroblastoma); 30 ± 6.9 µM in the series on MIA (Pancreas); 7.6 ± 0.46 µM with U87 (Glioblastoma); 16 ± 1.2 µM with H460 (Lung); 33 ± 1.2 µM with HT29 (Colon); 22 ± 1.5 µM in the series with Du145 (Prostate). The GI50 was 24 ± 2.6 µM in the series with A431 (Skin); 17 ± 1.5 µM with MCF10A (Breast, Normal); 38 ± 5.9 µM in the series on SJ-G2 (Glioblastoma); 8 ± 1.6 µM with MCF-7 (Breast). For the same molecule, in the series with Calf-thymus DNA (ctDNA), the “Binding Stoichiometry” value is on record as 0.94. For the same molecule, the “KF (binding constant for fluorescence)” value with Calf-thymus DNA (ctDNA) is 2.84 × 10^3. In the series on Calf-thymus DNA (ctDNA), the “KSV (Stern–Volmer quenching constant)” value is given as 2.07 × 10^3. Also, in the series with Calf-thymus DNA (ctDNA), the “Ka (binding coefficient)” value is 7.43 × 10^4. Also, in the series with Calf-thymus DNA (ctDNA), the “Kq (bimolecular quenching constant)” value is on record as 0.30 × 10^3. Also, in the series with Calf-thymus DNA (ctDNA), the “n (molar equivalents of PC at the point of intersection)” value came out at 0.67. The “ΔFsat (change in fluorescence at the point of binding)” value with Calf-thymus DNA (ctDNA) came out at 113.0. Moreover, the Lipophilicity in series [1] came to 2.46 ± 0.025.

On to `N[C@H]1CCCC[C@@H]1N.[Pt+2].c1ccc(-c2ncc[nH]2)nc1` [Complex 5a, [Pt(2-(1H-Imidazol-2-yl)pyridine)(1S,2S-(+)-diaminocyclohexane)]^2+], for which the 50% growth inhibitory concentration (GI50) with BE2-C (Neuroblastoma) amounted to 0.21 ± 0.04 µM; in the series with MIA (Pancreas), 0.43 ± 0.07 µM; in the series with U87 (Glioblastoma) it was 0.036 ± 0.009 µM; with H460 (Lung) it was 0.29 ± 0.05 µM; with HT29 (Colon), 0.56 ± 0.1 µM; with Du145 (Prostate) it was 0.29 ± 0.07 µM. In addition, the GI50 stood at 0.37 ± 0.06 µM in the series on A431 (Skin); 0.15 ± 0.03 µM with MCF10A (Breast, Normal); 2.7 ± 0.46 µM in the series with SJ-G2 (Glioblastoma); 0.15 ± 0.03 µM with MCF-7 (Breast). Also, the “Binding Stoichiometry” value in the series with Calf-thymus DNA (ctDNA) came to 0.80. Also, in the series with Calf-thymus DNA (ctDNA), the “KF (binding constant for fluorescence)” value is listed as 3.16 × 10^3. Further, the “KSV (Stern–Volmer quenching constant)” value with Calf-thymus DNA (ctDNA) is 2.11 × 10^3. Further, in the series with Calf-thymus DNA (ctDNA), the “Ka (binding coefficient)” value is reported as 5.89 × 10^4. Also, the “Kq (bimolecular quenching constant)” value in the series with Calf-thymus DNA (ctDNA) is on record as 0.36 × 10^3. Moreover, the “n (molar equivalents of PC at the point of intersection)” value with Calf-thymus DNA (ctDNA) is listed as 0.87. The “ΔFsat (change in fluorescence at the point of binding)” value in the series on Calf-thymus DNA (ctDNA) came to 122.4. In [1], this molecule showed a Lipophilicity of 2.50 ± 0.02.

Usually GI50 stands for the concentration giving 50% growth inhibition.
